This test deals with T1, Human orexin receptor type 2 (Homo sapiens, UniProt O43614).
T1 construct: expressed in transfected cells; host or cells: CHO cells (transient expression)
T1 sequence (O43614 1-444): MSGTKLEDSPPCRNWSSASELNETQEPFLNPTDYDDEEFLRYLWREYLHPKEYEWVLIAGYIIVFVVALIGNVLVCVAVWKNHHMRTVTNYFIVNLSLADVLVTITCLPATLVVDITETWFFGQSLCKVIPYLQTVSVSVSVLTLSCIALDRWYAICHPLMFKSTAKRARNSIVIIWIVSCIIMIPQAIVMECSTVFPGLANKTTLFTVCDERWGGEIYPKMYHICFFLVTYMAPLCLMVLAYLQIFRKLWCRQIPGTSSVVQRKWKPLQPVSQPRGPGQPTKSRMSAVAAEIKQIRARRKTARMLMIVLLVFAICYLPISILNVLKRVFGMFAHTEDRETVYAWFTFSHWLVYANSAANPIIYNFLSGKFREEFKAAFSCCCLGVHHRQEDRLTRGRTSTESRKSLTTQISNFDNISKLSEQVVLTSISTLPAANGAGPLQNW
Description: Test 2: Evaluation of agonist activity for orexin receptor type 2 (aequorin luminescence, intracellular calcium mobilization in CHO cells). Particulars: relative percentage of luminescence for the luminescence (100%) of Orexin A (100 pM); CHO cells transiently expressing human orexin receptor type 2 and apoaequorin; Orexin A Lot. 671009. It counts as cell-based. How it is done:
Test 2: Evaluation of Agonist Activity for Orexin Receptor Type 2
Human orexin receptor type 2 and apoaequorin were transiently expressed in CHO cells, and the agonist activity was evaluated based on intracellular calcium mobilization with ligand stimulation. The CHO cells transiently-expressed human orexin receptor type 2 and apoaequorin were seeded on a 384-well plate by 2,000 cells/well, and then incubated for 16-22 hours. After the plate was returned to room temperature, Coelenterazine hcp (final concentration: 1 μM) was added to the plate, and the plate was allowed to stand at room temperature for 2 hours. And then, Orexin A (PEPTIDE INSTITUTE, INC., Lot. 671009) or each test compound was added to the plate, and the luminescence of the cells was measured with FDSS7000 (Hamamatsu Photonics K.K.), wherein Orexin A and each test compound were dissolved in DMSO (final concentration: 0.1%), and diluted with a buffer (Hanks, 20 mM HEPES, 0.1% BSA). The agonist activity of each test compound for orexin receptor type 2 was calculated as relative percentage of luminescence for the luminescence (100%) of Orexin A (100 pM).
Background: Calcium flux is commonly read through the fluorescence of an indicator in the cells.

Turning to `CC(C)N1CCN(C(=O)[C@H]2CCCC(F)(F)[C@@H]2NC(=O)N2CCC(C)(c3noc([C@@H]4C[C@@H]4F)n3)CC2)CC1` [Example 132, N-{(1R,6S)-2,2-difluoro-6-[4-(propan-2-yl)piperazine-1-carbonyl]cyclohexyl}-4-{5-[(1S,2S)-2-fluorocyclopropyl]-1,2,4-oxadiazol-3-yl}-4-methylpiperidine-1-carboxamide], the “agonist activity (%)” value was determined as 166%.

With `CC(C)N1CCN([C@H]2CCCC(F)(F)[C@@H]2NC(=O)N2CCC(C)(c3noc(C4CCC4)n3)CC2)CC1` [Example 97, 4-(5-cyclobutyl-1,2,4-oxadiazol-3-yl)-N-{(1R,6S)-2,2-difluoro-6-[4-(propan-2-yl)piperazin-1-yl]cyclohexyl}-4-methylpiperidine-1-carboxamide], the “agonist activity (%)” value is 486%.

As for `CN(C1CCC1)C1CCN([C@H]2CCCC(F)(F)[C@@H]2NC(=O)N2CCC(C)(c3noc([C@@H]4C[C@@H]4F)n3)CC2)CC1` [Example 159, N-[(1R,6S)-6-{4-[cyclobutyl(methyl)amino]piperidin-1-yl}-2,2-difluorocyclohexyl]-4-{5-[(1S,2S)-2-fluorocyclopropyl]-1,2,4-oxadiazol-3-yl}-4-methylpiperidine-1-carboxamide], the “agonist activity (%)” value was 392%.

As for `CN(C1CC1)[C@H]1CCN([C@H]2CCCC(F)(F)[C@@H]2NC(=O)N2CCC(C)(c3noc([C@@H]4C[C@@H]4F)n3)CC2)C1` [Example 115, N-[(1R,6S)-6-{(3S)-3-[cyclopropyl(methyl)amino]pyrrolidin-1-yl}-2,2-difluorocyclohexyl]-4-{5-[(1S,2S)-2-fluorocyclopropyl]-1,2,4-oxadiazol-3-yl}-4-methylpiperidine-1-carboxamide], the “agonist activity (%)” value was determined as 403%.

For the compound `CC(C)N1CCC(O[C@H]2CCCC(F)(F)[C@@H]2NC(=O)N2CCC(C)(c3noc(C4CC4)n3)CC2)CC1` [Example 84, 4-(5-cyclopropyl-1,2,4-oxadiazol-3-yl)-N-[(1R,6S)-2,2-difluoro-6-{[1-(propan-2-yl)piperidin-4-yl]oxy}cyclohexyl]-4-methylpiperidine-1-carboxamide], the “agonist activity (%)” value is listed as 372%.

On to `CC(C)n1cc(O[C@H]2CCCC(F)(F)[C@@H]2NC(=O)N2CCC(C)(c3noc([C@@H]4C[C@@H]4F)n3)CC2)cn1` [Example 88, N-[(1R,6S)-2,2-difluoro-6-{[1-(propan-2-yl)-1H-pyrazol-4-yl]oxy}cyclohexyl]-4-{5-[(1S,2S)-2-fluorocyclopropyl]-1,2,4-oxadiazol-3-yl}-4-methylpiperidine-1-carboxamide], for which the “agonist activity (%)” value is 201%.

For the compound `CC(C)N1CCN([C@H]2CCCCC[C@@H]2NC(=O)N2CCC(C)(c3noc(C4CC4)n3)CC2)CC1` (racemic) [Example 151, rac-4-(5-cyclopropyl-1,2,4-oxadiazol-3-yl)-4-methyl-N-{(1S,2S)-2-[4-(propan-2-yl)piperazin-1-yl]cycloheptyl}piperidine-1-carboxamide], the “agonist activity (%)” value was determined as 368%.

For the compound `CC(C)N1CCN(C[C@H]2CCCC(F)(F)[C@@H]2NC(=O)N2CCC(C)(c3noc([C@@H]4C[C@@H]4F)n3)CC2)CC1` [Example 117, N-[(1R,6R)-2,2-difluoro-6-{[4-(propan-2-yl)piperazin-1-yl]methyl}cyclohexyl]-4-{5-[(1S,2S)-2-fluorocyclopropyl]-1,2,4-oxadiazol-3-yl}-4-methylpiperidine-1-carboxamide], the “agonist activity (%)” value is given as 465%.

For `CC(C)N1CCCN([C@H]2CCCC(F)(F)[C@@H]2NC(=O)N2CCC(C)(c3noc([C@@H]4C[C@@H]4F)n3)CC2)CC1` [Example 152, N-{(1R,6S)-2,2-difluoro-6-[4-(propan-2-yl)-1,4-diazepan-1-yl]cyclohexyl}-4-{5-[(1S,2S)-2-fluorocyclopropyl]-1,2,4-oxadiazol-3-yl}-4-methylpiperidine-1-carboxamide], the “agonist activity (%)” value was found to be 470%.

In the case of `CC(C)N1CCN([C@H]2CCC[C@H](F)[C@@H]2NC(=O)N2CCC(C)(c3noc([C@@H]4C[C@@H]4F)n3)CC2)CC1` [Example 156], the “agonist activity (%)” value is on record as 323%.

Turning to `CC(C)N1CCC(C)(O[C@H]2CCCC(F)(F)[C@@H]2NC(=O)N2CCC(C)(c3noc([C@@H]4C[C@@H]4F)n3)CC2)CC1` [Example 109, N-[(1R,6S)-2,2-difluoro-6-{[4-methyl-1-(propan-2-yl)piperidin-4-yl]oxy}cyclohexyl]-4-{5-[(1S,2S)-2-fluorocyclopropyl]-1,2,4-oxadiazol-3-yl}-4-methylpiperidine-1-carboxamide], the “agonist activity (%)” value worked out at 359%.

In the case of `CC(C)c1cn([C@H]2CCCC(F)(F)[C@@H]2NC(=O)N2CCC(C)(c3noc([C@@H]4C[C@@H]4F)n3)CC2)nn1` [Example 93, N-{(1R,6S)-2,2-difluoro-6-[4-(propan-2-yl)-1H-1,2,3-triazol-1-yl]cyclohexyl}-4-{5-[(1S,2S)-2-fluorocyclopropyl]-1,2,4-oxadiazol-3-yl}-4-methylpiperidine-1-carboxamide], the “agonist activity (%)” value is 365%.

Turning to `CC(C)N1CCN([C@H]2CCCC(F)(F)[C@@H]2NC(=O)N2CCC(C)(c3noc([C@@H]4C[C@@H]4F)n3)CC2)[C@H](C)C1` [Example 111, N-{(1R,6S)-2,2-difluoro-6-[(2R)-2-methyl-4-(propan-2-yl)piperazin-1-yl]cyclohexyl}-4-{5-[(1S,2S)-2-fluorocyclopropyl]-1,2,4-oxadiazol-3-yl}-4-methylpiperidine-1-carboxamide], the “agonist activity (%)” value came to 382%.

Regarding `CC(C)N1CC[C@H](N(C)[C@H]2CCCC(F)(F)[C@@H]2NC(=O)N2CCC(C)(c3noc([C@@H]4C[C@@H]4F)n3)CC2)C1` [Example 95, N-[(1R,6S)-2,2-difluoro-6-{methyl[(3S)-1-(propan-2-yl)pyrrolidin-3-yl]amino}cyclohexyl]-4-{5-[(1S,2S)-2-fluorocyclopropyl]-1,2,4-oxadiazol-3-yl}-4-methylpiperidine-1-carboxamide], the “agonist activity (%)” value is 447%.

`CN(CC1CC1)C1CN([C@H]2CCCC(F)(F)[C@@H]2NC(=O)N2CCC(C)(c3noc([C@@H]4C[C@@H]4F)n3)CC2)C1` [Example 149, N-[(1R,6S)-6-{3-[(cyclopropylmethyl)(methyl)amino]azetidin-1-yl}-2,2-difluorocyclohexyl]-4-{5-[(1S,2S)-2-fluorocyclopropyl]-1,2,4-oxadiazol-3-yl}-4-methylpiperidine-1-carboxamide]: the “agonist activity (%)” value is recorded as 419%.

As to `CC1(c2noc([C@@H]3C[C@@H]3F)n2)CCN(C(=O)N[C@@H]2[C@@H](O[C@H]3CCN(CC4(C(F)(F)F)CC4)C3)CCCC2(F)F)CC1` [Example 135, N-[(1R,6S)-2,2-difluoro-6-{[(3S)-1-{[1-(trifluoromethyl)cyclopropyl]methyl}pyrrolidin-3-yl]oxy}cyclohexyl]-4-{5-[(1S,2S)-2-fluorocyclopropyl]-1,2,4-oxadiazol-3-yl}-4-methylpiperidine-1-carboxamide], the “agonist activity (%)” value was determined as 396%.

In the case of `CC(C)CN1CC[C@H](O[C@H]2CCCC(F)(F)[C@@H]2NC(=O)N2CCC(C)(c3noc(C4CC4)n3)CC2)C1` [Example 116, 4-(5-cyclopropyl-1,2,4-oxadiazol-3-yl)-N-[(1R,6S)-2,2-difluoro-6-{[(3S)-1-(2-methylpropyl)pyrrolidin-3-yl]oxy}cyclohexyl]-4-methylpiperidine-1-carboxamide], the “agonist activity (%)” value stood at 488%.

On to `CC1(c2noc([C@@H]3C[C@@H]3F)n2)CCN(C(=O)N[C@@H]2[C@@H](N3CCC(N4CCCC4)CC3)CCCC2(F)F)CC1` [Example 124, N-{(1R,6S)-2,2-difluoro-6-[4-(pyrrolidin-1-yl)piperidin-1-yl]cyclohexyl}-4-{5-[(1S,2S)-2-fluorocyclopropyl]-1,2,4-oxadiazol-3-yl}-4-methylpiperidine-1-carboxamide], for which the “agonist activity (%)” value worked out at 391%.

On to `CC(C)N(C)[C@H]1CCN([C@H]2CCCC(F)(F)[C@@H]2NC(=O)N2CCC(C)(c3noc([C@@H]4C[C@@H]4F)n3)CC2)C1` [Example 96, N-[(1R,6S)-2,2-difluoro-6-{(3S)-3-[methyl(propan-2-yl)amino]pyrrolidin-1-yl}cyclohexyl]-4-{5-[(1S,2S)-2-fluorocyclopropyl]-1,2,4-oxadiazol-3-yl}-4-methylpiperidine-1-carboxamide], for which the “agonist activity (%)” value was found to be 493%.

Regarding `CC(C)N(C)[C@@H]1CCN([C@H]2CCCC(F)(F)[C@@H]2NC(=O)N2CCC(C)(c3noc([C@@H]4C[C@@H]4F)n3)CC2)C1` [Example 112, N-[(1R,6S)-2,2-difluoro-6-{(3R)-3-[methyl(propan-2-yl)amino]pyrrolidin-1-yl}cyclohexyl]-4-{5-[(1S,2S)-2-fluorocyclopropyl]-1,2,4-oxadiazol-3-yl}-4-methylpiperidine-1-carboxamide], the “agonist activity (%)” value is on record as 376%.
